Results as given in US5739131A, “Benzene derivatives and pharmaceutical composition” (Kureha Chemical Industry Co., Ltd., priority 1994, dated 1998).
pIC50: −log10 of the molar value. Read-outs that look alike come from different tables or passages of the source.

What was measured:
mice = test: Acute toxicity, single oral dose; assay type: in vivo
Protocol: Five-week-old ICR female mice (5 mice per group) were bred for acclimation for a week. Then, the compounds of the present invention were dissolved or dispersed in an aqueous solution of 0.5% methylcellulose, and orally administered to the mice in a single dosage (500 mg/kg).

[1] = target: T1, angiotensin II receptor subtype 1 (AT1) (Oryctolagus cuniculus, UniProt P34976); test: Binding assay, angiotensin II receptor subtype 1 (AT1); set-up: species or system rabbit (adrenal glands); details: for inhibition at 100 µM: AT1, rabbit adrenal glands
T1 construct: receptor: from adrenal glands in rabbits; from tissue; host or cells: rabbit adrenal glands
T1 sequence (P34976 1-359): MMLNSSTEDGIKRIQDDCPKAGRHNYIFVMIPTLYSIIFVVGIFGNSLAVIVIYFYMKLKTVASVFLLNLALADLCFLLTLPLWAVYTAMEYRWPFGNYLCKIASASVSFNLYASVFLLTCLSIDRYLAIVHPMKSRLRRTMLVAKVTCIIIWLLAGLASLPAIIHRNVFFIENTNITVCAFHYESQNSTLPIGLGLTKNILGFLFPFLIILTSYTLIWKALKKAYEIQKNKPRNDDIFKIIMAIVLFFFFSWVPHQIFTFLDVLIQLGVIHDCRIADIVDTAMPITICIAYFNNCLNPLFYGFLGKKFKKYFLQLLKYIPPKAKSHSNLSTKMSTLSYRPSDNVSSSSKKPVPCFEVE
Protocol: (§1) In this Example, the affinity to the angiotensin II receptor subtype 1 or subtype 2 was evaluated by a binding assay in accordance with the method described in Biochem. Pharmacol., 33, 4057-4062 (1984).
(§2) Specifically, the measurement of the total binding in the presence of each drug was performed as follows:
(§3) A mixture (final volume=0.25 ml) of a drug in a given concentration (the drug was dissolved in DMSO, and diluted to a double volume with a buffer attached to a drug discovery system to prepare sample for the assay; 0.025 ml), a tracer (0.025 ml), and receptors (0.2 ml) was incubated [in the case of the angiotensin II receptor subtype 1 (AT1), at room temperature for 3 hours, and in the case of the subtype 2 (AT2), at 37° C. for 1 hour]. Then, the reaction mixture was filtered with suction (GF/C filter was used in AT1, and GF/B filter was used in AT2). The filter papers after filtration with suction (the tracer bound to the receptors) were counted by a γ-well counter (ARC-500, Aloka). The non-specific bindings were measured by repeating the above method, except that a large excess amount of a displacer was added. The specific binding of the drug in the given concentration was calculated by subtracting the non-specific binding from the total binding, respectively.
(§4) In AT1 and AT2, the percentages to inhibit the bindings of radioactive ligands (tracer) to receptors by the drugs to be tested (IC50 value of concentration to show 50% inhibition, or binding inhibition % in 100 μM) were measured, using the drugs to be tested and control drugs in the given concentration.

[2] = target: T2, angiotensin II receptor subtype 2 (AT2) (Bos taurus, UniProt G5E6F7); test: Binding assay, angiotensin II receptor subtype 2 (AT2); set-up: species or system bovine (cerebellar cortex); details: read-out: Binding inhibition % in 100 μm, AT2
T2 construct: receptor: from cerebellar cortex in bovine; from tissue; host or cells: bovine cerebellar cortex
T2 sequence (G5E6F7 1-362): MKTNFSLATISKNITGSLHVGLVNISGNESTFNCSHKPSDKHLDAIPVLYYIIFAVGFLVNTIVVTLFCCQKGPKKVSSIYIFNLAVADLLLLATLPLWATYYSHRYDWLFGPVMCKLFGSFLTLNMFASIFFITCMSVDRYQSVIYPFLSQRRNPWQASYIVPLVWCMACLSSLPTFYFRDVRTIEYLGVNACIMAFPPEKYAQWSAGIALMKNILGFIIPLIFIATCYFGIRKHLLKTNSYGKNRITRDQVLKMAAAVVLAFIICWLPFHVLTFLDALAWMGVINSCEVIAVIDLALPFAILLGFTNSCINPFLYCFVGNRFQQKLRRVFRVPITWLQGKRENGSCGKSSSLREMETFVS
Protocol: as §1, §2, §3, §4
receptor: from cerebellar cortex in bovine
tracer: ^125 ITyr^4angiotensin II
control drug: angiotensin II (human)
(displacer): angiotensin II (human)

[3] = system: kidney disease model rats; test: Action to depress blood pressure (tail cuff method); assay type: in vivo, Sprague-Dawley female rats; details: systolic, average, 20 mg/kg per os, two days from administration; control (water) 203
Protocol: The compounds of the present invention and the reference substance were forcedly administered per os to kidney disease model rats, and the action to depress blood pressure was observed. The kidney disease model rats were prepared by ligature of branches of renal artery in accordance with the conventional method, that is, the left hilum renalis of Sprague-Dawley female rats was exposed under anesthesia, and one of four secondary branches of renal artery was left unligated, while the remaining three branches were ligated, respectively. After a week, the hilum renalis (artery, vein, and ureter) of the right kidney were further ligated to thereby prepare the rats whose renal function was lowered to approximately 1/8 of the normal function. Each group consisted of eight rats. The drugs to be tested (20 mg/kg) were administered to each administering group, and only water was administered to control group. After two days from the administration, the systolic blood pressure was measured by the tail cuff method using a blood pressure measuring apparatus (UR5000; Ueda).

[4] = system: kidney disease model rats; test: Renal function indicatory value (action to kidney diseases); assay type: in vivo, Sprague-Dawley female rats; details: 20 mg/kg/day per os, two weeks; for Creatinine clearance: 24 hours urine, control 0.20; for Creatinine / Urea nitrogen: serum; for Creatinine: control 2.0; for Urea nitrogen: control 100
Protocol: The kidney disease model rats were prepared as in Example 115. Twenty-five groups (8 rats per group) were sleeked in a manner so that there were no major differences between each group in the serum creatinine value and the urea nitrogen value indicating renal function. The rats in each group were allowed to freely take up feed and water. […] To the rats in the control group, only water was forcedly administered per os every day. After two weeks, 0.2 ml of blood was collected from the carotid artery of the rat under anesthesia, and centrifuged to obtain serum. Using 25 μl of the serum, serum creatinine (Scr) was measured by a creatinine analytical instrument (Beckman). Using 10 μl of the serum, urea nitrogen (BUN) was measured by a BUN analytical instrument (Beckman). Creatinine clearance was evaluated as follows:
After serum creatinine measurement, rats were placed in urinary metabolic cages for 24 hours to collect urine. Urinary creatine concentration (Ucr) was measured by a creatinine analytical instrument, and total volume of urination (Uvol) was also measured. Creatinine clearance (CCr) was calculated by the following formula: [formula]

[5] = system: kidney disease model rats; test: Action to survival time of kidney diseased animals; assay type: in vivo, Sprague-Dawley female rats; details: 20 mg/kg/day per os, observation eight weeks (upper limit); control 5.0
Protocol: The kidney disease model rats were prepared as in Example 115. Twenty-five groups (8 rats per group) were prepared in a manner so that there was no major difference between the groups in the serum creatinine value and the urea nitrogen value indicating renal function. The rats in each group were allowed to freely take up feed and water. […] To the rats in the control group, only water was forcedly administered per os every day. If kidney diseases are aggravated, the rat will die of uremia. Thus, the survival time was observed as comprehensive indication of the improvement effect on the kidney diseases. The observation period was eight weeks. Thus if all rats survived, the average survival time is eight weeks and it is an upper limit.

[6] = 100 μM, AT2, bovine cerebellar cortex, 37° C. 1 hour
[7] = mice, single oral 500 mg/kg, observed for 6 days, 5 per group

SMILES	Number of deaths/number of survivals (mice; mouse, in vivo, po, 500 mg/kg)	inhibition at 100 µM [1] [%]	inhibition at 100 µM [2, 6] [%]	Blood pressure [3] [mmHg]	Creatinine clearance [4] [mL/min]	Creatinine [4] [mg/dL]	Urea nitrogen [4] [mg/dL]	Average survival time [5] [weeks]	Number of deaths/number of survivals (mice; [7])	pIC50 [1]	inhibition at 100 µM [2] [%]	pIC50 ([1]; tracer 3H angiotensin II, room temperature 3 hours, read-out: IC50 AT1)
CCCCCN(C)c1c(NCc2ccc(-c3ccccc3-c3nn[nH]n3)cc2)cc(C(=O)N2CCOCC2)cc1NC(=O)C(c1ccccc1)c1ccccc1 [Compound No. 593, 4-(N-n-amyl-N-methyl)amino-5-(diphenylacetamido)-3-[[2'-(1H-tetrazol-5-yl)biphenyl-4-yl]methylamino]benzoic acid morpholide]	0/5	36	0	200	0.31	1.6	80	7.1	–	–	–	–
CCCCCN(C)c1ccc(S(=O)(=O)N2CCOCC2)cc1NCc1ccc(-c2ccccc2-c2nn[nH]n2)cc1 [Compound No. 595, 4-[[4-(N-n-amyl-N-methyl)amino-3-[[2'-(1H-tetrazol-5-yl)biphenyl-4-yl]methyl]aminobenzene]sulfonyl]morpholine]	0/5	41	0	198	0.38	1.5	73	7.6	–	–	–	–
CCCCC(=O)Nc1ccc(C(=O)N(CC)CC)cc1NCc1ccc(-c2ccccc2-c2nn[nH]n2)cc1 [Compound No. 586, [3-[[2'-(1H-tetrazol-5-yl)biphenyl-4-yl]methylamino]-4-valeramido]benzoic acid diethylamide]	–	–	–	198	0.33	1.7	76	6.8	0/5	5.92	0	–
CCCCCN(C)c1c(NCc2ccc(C(=O)O)cc2)cc(S(=O)(=O)N2CCOCC2)cc1NC(=O)C(c1ccccc1)c1ccccc1 [Compound No. 598, 4-[[4-(N-n-amyl-N-methyl)amino-3-[(4-carboxylphenyl)methyl]amino-5-(diphenylacetamido)benzene]sulfonyl]morpholine]	0/5	36	0	202	0.35	1.6	80	7.2	–	–	–	–
CCCCC(=O)N(Cc1ccc(C(=O)O)cc1)c1cc(C(=O)N2CCOCC2)ccc1C(C)C [Compound No. 372, 3-N-[[(4-carboxyphenyl)methyl]valeramido]-4-isopropylbenzoicacid morpholide]	0/5	2	0	190	0.36	1.7	72	7.6	–	–	–	–
CCCCCCc1ccc(C(=O)N2CCOCC2)cc1NCc1ccc(C(=O)O)cc1 [Compound No. 75, 3-[(4-carboxyphenyl)methyl]amino-4-hexylbenzoic acid morpholide]	–	15	0	–	–	–	–	–	–	–	–	–
CCCCC(=O)N(Cc1ccc(-c2nn[nH]n2)cc1)c1cc(C(=O)N2CCOCC2)ccc1N(C)C [Compound No. 604, 4-dimethylamino-3-N-[[4-(1H-tetrazol-5-yl)phenylmethyl]valeramido]benzoic acid morpholide]	0/5	15	0	200	0.28	1.8	75	7.0	–	–	–	–
CCCCC(=O)Nc1ccc(C(=O)N2CCOCC2)cc1N(Cc1ccc(-c2ccccc2-c2nn[nH]n2)cc1)Cc1ccc(-c2ccccc2-c2nn[nH]n2)cc1 [Compound No. 594, 3-[di-[2'-(1H-tetrazol-5-yl)biphenyl-4-yl]methylamino]-4-valeramidobenzoicacid morpholide]	–	–	0	194	0.30	1.7	77	6.5	0/5	–	–	4.49
CCCCCN(C)c1c(NCc2ccc(-c3ccccc3-c3nn[nH]n3)cc2)cc(S(=O)(=O)N2CCOCC2)cc1NC(=O)CCc1ccccc1 [Compound No. 599, 4-[[4-(N-n-amyl-N-methyl)amino-3-[[2'-(1H-tetrazol-5-yl)biphenyl-4-yl]methyl]amino-5-(3-phenylpropionamido)benzene]sulfonyl]morpholine]	0/5	38	0	200	0.35	1.5	73	7.0	–	–	–	–
CCCCC(=O)N(Cc1ccc(C(=O)O)cc1)c1cc(S(=O)(=O)N2CCOCC2)ccc1N(C)C [Compound No. 597, 4-[[3-N-[(4-carboxyphenyl)methyl]valeramido-4-dimethylaminobenzene]sulfonyl]morpholine]	–	0	0	–	–	–	–	–	–	–	–	–
